Holding throughout (type): functional
Holding throughout (conditions): time 16-20 hrs

Experiment [1] deals with Enterobacter cloacae. As to the kind of experiment: Antibacterial activity against Enterobacter cloacae IR32 producing class B beta-lactamase, NDM1 assessed as reduction in microbial growth incubated for 16 to 20 hrs by broth microdilution method.
For experiment [2], the system named is Klebsiella pneumoniae. As to the kind of experiment: Antibacterial activity against Klebsiella pneumoniae JMI:211 producing class A beta-lactamase, KPC-2 assessed as reduction in microbial growth incubated for 16 to 20 hrs by broth microdilution method. Background: In broth dilution the organism is exposed to a series of concentrations in liquid medium.
Experiment [3] has as its system Escherichia coli. As to the kind of experiment: Antibacterial activity against Escherichia coli SR34100 producing class A beta-lactamase, CTX-M-15 assessed as reduction in microbial growth incubated for 16 to 20 hrs by broth microdilution method.
Experiment [4] relates to Enterobacter cloacae. As to the kind of experiment: Antibacterial activity against Enterobacter cloacae SR36276 producing class C beta-lactamase, AmpC assessed as reduction in microbial growth incubated for 16 to 20 hrs by broth microdilution method.
Experiment [5] relates to Klebsiella pneumoniae. As to the kind of experiment: Antibacterial activity against Klebsiella pneumoniae PLE producing class D beta-lactamase, OXA-48 assessed as reduction in microbial growth incubated for 16 to 20 hrs by broth microdilution method.
The subject of experiment [6] is Escherichia coli. As to the kind of experiment: Antibacterial activity against Escherichia coli NIHJ JC-2 assessed as reduction in microbial growth incubated for 16 to 20 hrs by broth microdilution method.

Bounds are passed on as bounds.

Usually MIC stands for the smallest concentration in the dilution series that meets the test's criterion for growth inhibition. As for `Nc1nc(/C(=N/OCC(=O)O)C(=O)N[C@@H]2C(=O)N3[C@@H]2[S@@+]([O-])C[C@@H]2CC(=O)O[C@@]23C(=O)O)ns1`, the MIC in the experiment on Enterobacter cloacae [1] was 2 µg/mL; with Klebsiella pneumoniae [2], 1 µg/mL; in the experiment on Escherichia coli [3], 8 µg/mL; in the experiment with Enterobacter cloacae [4] it was 1 µg/mL; in the experiment on Klebsiella pneumoniae [5] it was 4 µg/mL; in the experiment with Escherichia coli [6], 1 µg/mL.
For `Nc1nc(/C(=N/OCC(=O)O)C(=O)N[C@@H]2C(=O)N3[C@@H]2SC[C@@H]2CC(=O)O[C@@]23C(=O)O)c(Cl)s1`, the MIC with Enterobacter cloacae [1] stood at 2 µg/mL; in the experiment with Klebsiella pneumoniae [2] it was 4 µg/mL; with Escherichia coli [3], 4 µg/mL; in the experiment on Enterobacter cloacae [4] it was 8 µg/mL; in the experiment with Klebsiella pneumoniae [5], 16 µg/mL; in the experiment on Escherichia coli [6], 1 µg/mL.
On to `Nc1nc(/C(=N/OCC(=O)O)C(=O)N[C@@H]2C(=O)N3[C@@H]2SC[C@@H]2CC(=O)O[C@@]23C(=O)O)ns1`, for which the MIC was found to be 0.5 µg/mL in the experiment with Enterobacter cloacae [1]; 0.125 µg/mL in the experiment on Klebsiella pneumoniae [2]; 0.25 µg/mL in the experiment with Escherichia coli [3]; 4 µg/mL with Enterobacter cloacae [4]; 1 µg/mL in the experiment with Klebsiella pneumoniae [5]; 0.125 µg/mL with Escherichia coli [6].
As to `Nc1nc(/C(=N/OCC(=O)O)C(=O)N[C@@H]2C(=O)N3[C@@H]2S(=O)(=O)C[C@@H]2CC(=O)O[C@@]23C(=O)O)cs1` (stereo in doubt), the MIC stood at 0.25 µg/mL with Enterobacter cloacae [1]; 0.5 µg/mL in the experiment with Klebsiella pneumoniae [2]; 1 µg/mL in the experiment on Escherichia coli [3]; 1 µg/mL in the experiment on Enterobacter cloacae [4]; 0.5 µg/mL with Klebsiella pneumoniae [5]; 0.25 µg/mL in the experiment on Escherichia coli [6].
As for `Nc1nc(/C(=N/OCC(=O)O)C(=O)N[C@@H]2C(=O)N3[C@@H]2[S@+]([O-])C[C@@H]2CC(=O)O[C@@]23C(=O)O)cs1` (stereo in doubt), the MIC in the experiment with Enterobacter cloacae [1] is 2 µg/mL; in the experiment on Klebsiella pneumoniae [2], 0.5 µg/mL; in the experiment with Escherichia coli [3] it was 1 µg/mL; in the experiment with Enterobacter cloacae [4] it was > 32 µg/mL; in the experiment on Klebsiella pneumoniae [5], 0.5 µg/mL; with Escherichia coli [6], 0.25 µg/mL.
In the case of `C[C@@H](O/N=C(\C(=O)N[C@@H]1C(=O)N2[C@@H]1SC[C@@H]1CC(=O)O[C@@]12C(=O)O)c1csc(N)n1)C(=O)O` (stereo in doubt), the minimal inhibitory concentration (MIC) came out at 0.25 µg/mL with Enterobacter cloacae [1]; 0.5 µg/mL with Klebsiella pneumoniae [2]; 0.5 µg/mL with Escherichia coli [3]; 16 µg/mL with Enterobacter cloacae [4]; 1 µg/mL in the experiment with Klebsiella pneumoniae [5]; 0.125 µg/mL in the experiment with Escherichia coli [6].
For the compound `C[C@H](O/N=C(\C(=O)N[C@@H]1C(=O)N2[C@@H]1[S@@+]([O-])C[C@@H]1CC(=O)O[C@@]12C(=O)O)c1csc(N)n1)C(=O)O` (stereo in doubt), the MIC in the experiment with Enterobacter cloacae [1] was 0.5 µg/mL; in the experiment with Klebsiella pneumoniae [2] it was 0.5 µg/mL; in the experiment on Escherichia coli [3], 1 µg/mL; in the experiment on Enterobacter cloacae [4], 0.25 µg/mL; with Klebsiella pneumoniae [5], 1 µg/mL; with Escherichia coli [6] it was 0.25 µg/mL.
As to `Nc1nc(/C(=N/OC2(C(=O)O)CC2)C(=O)N[C@@H]2C(=O)N3[C@@H]2SC[C@@H]2CC(=O)O[C@@]23C(=O)O)cs1` (stereo in doubt), the MIC in the experiment with Enterobacter cloacae [1] amounted to 0.25 µg/mL; in the experiment on Klebsiella pneumoniae [2], 0.5 µg/mL; in the experiment with Escherichia coli [3], 0.25 µg/mL; in the experiment with Enterobacter cloacae [4], 8 µg/mL; with Klebsiella pneumoniae [5] it was 1 µg/mL; with Escherichia coli [6], 0.125 µg/mL.
Consider `C[C@@H](O/N=C(\C(=O)N[C@@H]1C(=O)N2[C@@H]1[S@@+]([O-])C[C@@H]1CC(=O)O[C@@]12C(=O)O)c1csc(N)n1)C(=O)O` (stereo in doubt), for which the MIC in the experiment on Enterobacter cloacae [1] is 0.125 µg/mL; in the experiment with Klebsiella pneumoniae [2], 0.25 µg/mL; with Escherichia coli [3] it was 0.5 µg/mL; with Enterobacter cloacae [4], 0.25 µg/mL; with Klebsiella pneumoniae [5] it was 0.5 µg/mL; in the experiment on Escherichia coli [6], 0.125 µg/mL.
As for `C[C@H](O/N=C(\C(=O)N[C@@H]1C(=O)N2[C@@H]1SC[C@@H]1CC(=O)O[C@@]12C(=O)O)c1csc(N)n1)C(=O)O` (stereo in doubt), the MIC was 0.25 µg/mL in the experiment on Enterobacter cloacae [1]; 0.25 µg/mL in the experiment with Klebsiella pneumoniae [2]; 0.5 µg/mL in the experiment on Escherichia coli [3]; 16 µg/mL in the experiment on Enterobacter cloacae [4]; 0.5 µg/mL with Klebsiella pneumoniae [5]; 0.125 µg/mL in the experiment on Escherichia coli [6].
